Experimental data from paper PMC11984691, “Identifying ENO1 as a protein target of chlorogenic acid to inhibit cellular senescence and prevent skin photoaging in mice” (Aging Cell, 2024).

Legend:
Enolase 1 (ENO1) = target: T1, Enolase 1 (ENO1) (Homo sapiens, UniProt P06733); experiment: MicroScale Thermophoresis with purified ENO1; also LC-MS/MS site mapping, CETSA, pull-down competition and enzyme activity inhibition; type: binding
T1 construct: recombinant wild-type human ENO1 (NP_001419.1), pET28a, His-tag
T1 sequence (P06733 2-434): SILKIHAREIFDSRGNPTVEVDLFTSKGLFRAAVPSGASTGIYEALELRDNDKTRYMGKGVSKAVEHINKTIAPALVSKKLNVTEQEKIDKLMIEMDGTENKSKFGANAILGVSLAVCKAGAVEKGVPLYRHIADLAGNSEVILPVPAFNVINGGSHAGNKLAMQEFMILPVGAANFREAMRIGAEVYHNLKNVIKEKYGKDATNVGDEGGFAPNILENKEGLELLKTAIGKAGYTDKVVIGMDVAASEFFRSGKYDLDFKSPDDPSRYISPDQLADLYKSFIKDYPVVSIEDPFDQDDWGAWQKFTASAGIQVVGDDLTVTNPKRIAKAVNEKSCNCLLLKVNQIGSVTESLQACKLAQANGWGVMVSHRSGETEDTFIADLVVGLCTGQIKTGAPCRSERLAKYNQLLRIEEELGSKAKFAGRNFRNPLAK

Enolase 1 (ENO1) C399A = target: T2, Enolase 1 (ENO1) C399A (Homo sapiens, UniProt P06733, C399A); experiment: MicroScale Thermophoresis with purified mutant ENO1; type: binding
T2 construct: recombinant human ENO1-C399A, pET28a, His-tag
T2 sequence (P06733 2-434 C399A): as the sequence (P06733 2-434) above, with C398A counted along it

Kd (Enolase 1 (ENO1)): 20 µM | Kd (Enolase 1 (ENO1) C399A): 130 µM
Compound: O=C(/C=C/c1ccc(O)c(O)c1)O[C@@H]1C[C@](O)(C(=O)O)C[C@@H](O)[C@H]1O [CGA, Chlorogenic acid]
